In one series the target is T1, human H3 receptor (Homo sapiens, UniProt Q9Y5N1).
T1 construct: expressed in transfected cells
Description: Human H3 radioligand binding ([3H]-N-alpha-methylhistamine, SPA). Particulars: membranes of CHO cells expressing human H3. The method, boiled down:
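Membranes from H3-expressing cells (10 μg protein/well) in 50 mM Tris HCl pH 7.4, 5 mM MgCl2, 0.1% BSA with ~1 nM [3H]-N-alpha-methylhistamine and compound (0.01 nM–30 μM), SPA beads, 4 h, room temperature, dark. Non-specific binding defined with 10 μM clobenpropit; bound radioligand read by scintillation counting.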

Series [1] addresses T2, rat histamine H3 receptor (Rattus norvegicus, UniProt Q9QYN8).
T2 construct: encoding the entire 445-amino-acid rat histamine H3 receptor; expressed in transfected cells
Description: Rat H3 radioligand binding ([3H]-N-alpha-methylhistamine, SPA). Particulars: membranes of CHO-A3 cells expressing rat H3; [3H]-N-alpha-methylhistamine; read-out: Rat H3 Ki. The method, boiled down:
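Membranes from CHO-A3 cells stably expressing full-length rat H3 receptor (445 aa) incubated with ~1 nM [3H]-N-alpha-methylhistamine and compound (0.01 nM–30 μM) in 50 mM Tris HCl pH 7.4, 5 mM MgCl2, 0.1% BSA, 4 h, room temperature; SPA bead read-out. Non-specific binding defined with 10 μM clobenpropit.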

Usually melting point stands for the temperature of the solid-liquid transition. The Ki is a dissociation constant, usually derived from enzyme kinetics or from competition with a known ligand.

T1 sequence (Q9Y5N1 whole entry): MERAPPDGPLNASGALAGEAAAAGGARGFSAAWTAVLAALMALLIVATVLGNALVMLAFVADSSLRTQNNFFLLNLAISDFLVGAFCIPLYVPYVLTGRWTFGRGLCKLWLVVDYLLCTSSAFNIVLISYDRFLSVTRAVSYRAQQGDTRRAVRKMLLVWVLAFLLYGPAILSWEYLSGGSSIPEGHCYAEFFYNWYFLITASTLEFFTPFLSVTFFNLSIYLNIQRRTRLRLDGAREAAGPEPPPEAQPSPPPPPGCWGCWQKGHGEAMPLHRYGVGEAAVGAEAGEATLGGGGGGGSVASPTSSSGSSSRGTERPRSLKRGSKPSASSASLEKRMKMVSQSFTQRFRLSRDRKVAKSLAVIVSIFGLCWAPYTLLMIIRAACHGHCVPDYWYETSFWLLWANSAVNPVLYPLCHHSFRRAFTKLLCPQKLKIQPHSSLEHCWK
T2 sequence (Q9QYN8 whole entry): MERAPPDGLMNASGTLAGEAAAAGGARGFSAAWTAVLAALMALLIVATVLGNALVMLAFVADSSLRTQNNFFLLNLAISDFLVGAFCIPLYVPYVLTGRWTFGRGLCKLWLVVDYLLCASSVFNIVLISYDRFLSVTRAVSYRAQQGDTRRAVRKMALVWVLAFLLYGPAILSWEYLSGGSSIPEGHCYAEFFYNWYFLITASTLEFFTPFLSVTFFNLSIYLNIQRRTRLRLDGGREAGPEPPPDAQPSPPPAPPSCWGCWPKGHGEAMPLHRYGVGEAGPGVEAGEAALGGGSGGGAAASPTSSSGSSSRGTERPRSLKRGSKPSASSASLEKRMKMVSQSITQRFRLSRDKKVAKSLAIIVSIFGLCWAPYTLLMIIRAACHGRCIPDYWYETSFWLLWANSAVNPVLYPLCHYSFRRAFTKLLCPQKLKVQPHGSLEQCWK

On to `C[C@@H]1CCCN1CCCOc1c(Cl)cc(C(=O)CN2CCN(c3ncccn3)CC2)cc1Cl` [Example 111, 1-{3,5-Dichloro-4-[3-((R)-2-methyl-pyrrolidin-1-yl)-propoxy]-phenyl}-2-(4-pyrimidin-2-yl-piperazin-1-yl)-ethanone], for which the melting point was 177 °C. In addition, the inhibition constant Ki at human H3 receptor lay within 0.1 to 100 nM. The Ki in series [1] was in the range of 101 to 500 nM.

`CC(=O)N1CCN(CC(=O)c2cc(C)c(OCCCN3CCC[C@H]3C)c(C)c2)CC1` [Example 97, 2-(4-Acetyl-piperazin-1-yl)-1-{3,5-dimethyl-4-[3-((R)-2-methyl-pyrrolidin-1-yl)-propoxy]-phenyl}-ethanone] yielded a melting point of 118 to 119 °C. At human H3 receptor, the Ki was in the range of 101 to 500 nM. Besides, in series [1], the Ki was in the range of 501 to 1000 nM.

For `C[C@@H]1CCCN1CCCOc1ccc(C(=O)CN2CCN(c3ncccn3)CC2)cc1F` [Example 119, 1-{3-Fluoro-4-[3-((R)-2-methyl-pyrrolidin-1-yl)-propoxy]-phenyl}-2-(4-pyrimidin-2-yl-piperazin-1-yl)-ethanone], the melting point came out at 219 °C. At human H3 receptor, the Ki was 0.1 to 100 nM. Also, the Ki in series [1] fell in the range of 0.1 to 100 nM.

The molecule `CCOC(=O)N1CCN(CC(=O)c2ccc(OCCCN3CCC[C@H]3C)cc2)CC1` [Example 115, 4-(2-{4-[3-((R)-2-Methyl-pyrrolidin-1-yl)-propoxy]-phenyl}-2-oxo-ethyl)-piperazine-1-carboxylic acid ethyl ester] registered a melting point of 218 to 219 °C. Moreover, the Ki on human H3 receptor is 0.1 to 100 nM. Further, the Ki in series [1] was 0.1 to 100 nM.

On to `COC[C@H]1CCCN1CCCOc1ccc(C(=O)CN2CCOCC2)cc1` [Example 71, 1-{4-[3-((R)-2-Methoxymethyl-pyrrolidin-1-yl)-propoxy]-phenyl}-2-morpholin-4-yl-ethanone], for which the melting point is > 200 °C (dec.). For the same molecule, on human H3 receptor, the Ki is > 1000 nM. In addition, the inhibition constant (Ki) in series [1] was > 1000 nM.

Turning to `CCC(=O)N1CCN(CC(=O)c2ccc(OCCCN3CCC[C@H]3C)cc2)CC1` [Example 144, 1-[4-(2-{4-[3-((R)-2-Methyl-pyrrolidin-1-yl)-propoxy]-phenyl}-2-oxo-ethyl)-piperazin-1-yl]-propan-1-one], the melting point fell in the range of 65 to 70 °C. On human H3 receptor, this molecule showed a Ki of 0.1 to 100 nM. In series [1], the Ki lay in the range of 0.1 to 100 nM.

Regarding `CS(=O)(=O)N1CCN(CCCOc2ccc(C(=O)CN3CCOCC3)cc2)CC1` [Example 59, 1-{4-[3-(4-Methanesulfonyl-piperazin-1-yl)-propoxy]-phenyl}-2-morpholin-4-yl-ethanone], the melting point was 246 to 248 °C. The inhibition constant (Ki) on human H3 receptor is > 1000 nM. Moreover, in series [1], the inhibitory constant (Ki) is > 1000 nM.

For `C[C@@H]1CCCN1CCCOc1ccc(C(=O)CN2CCN(S(C)(=O)=O)CC2)cc1F` [Example 122, 1-{3-Fluoro-4-[3-((R)-2-methyl-pyrrolidin-1-yl)-propoxy]-phenyl}-2-(4-methanesulfonyl-piperazin-1-yl)-ethanone], the melting point came out at 86 °C. The Ki on human H3 receptor is 0.1 to 100 nM. Moreover, the Ki in series [1] was 0.1 to 100 nM.

Turning to `C[C@@H]1CCCN1CCCOc1ccc(C(=O)CN2CCN(C)C(=O)C2)cc1` [Example 155, 1-Methyl-4-(2-{4-[3-((R)-2-methyl-pyrrolidin-1-yl)-propoxy]-phenyl}-2-oxo-ethyl)-piperazin-2-one], the melting point lay in the range of 115 to 120 °C. The same molecule came in with a Ki at human H3 receptor of 0.1 to 100 nM. In addition, the Ki in series [1] was 0.1 to 100 nM.

With `C[C@@H]1CCCN1CCCOc1ccc(C(=O)CN2CCN(c3ccccn3)CC2)cc1` [Example 116, 1-{4-[3-((R)-2-Methyl-pyrrolidin-1-yl)-propoxy]-phenyl}-2-(4-pyridin-2-yl-piperazin-1-yl)-ethanone], the melting point lay within 239 to 242 °C. Also, the Ki at human H3 receptor was 0.1 to 100 nM. Further, the Ki in series [1] is 0.1 to 100 nM.

`C[C@@H]1CCCN1CCCOc1ccc(C(=O)CN2CCC(F)(F)CC2)cc1F` [Example 141, 2-(4,4-Difluoro-piperidin-1-yl)-1-{3-fluoro-4-[3-((R)-2-methyl-pyrrolidin-1-yl)-propoxy]-phenyl}-ethanone]: the melting point is 220 °C. At human H3 receptor, the Ki was 0.1 to 100 nM. Moreover, the Ki in series [1] is 101 to 500 nM.

On to `C[C@@H]1CCCN1CCCOc1ccc(C(=O)CN2CCN(c3ncccn3)CC2)cc1` [Example 90, 1-{4-[3-((R)-2-Methyl-pyrrolidin-1-yl)-propoxy]-phenyl}-2-(4-pyrimidin-2-yl-piperazin-1-yl)-ethanone], for which the melting point is 112 to 114 °C. At human H3 receptor, this molecule yielded a Ki of 0.1 to 100 nM. In series [1], the Ki lay in the range of 0.1 to 100 nM.

The molecule `C[C@@H]1CCCN1CCCOc1ccc(C(=O)CN2CCN(C(=O)c3ccc4ccccc4n3)CC2)cc1` [Example 145, 1-{4-[3-((R)-2-Methyl-pyrrolidin-1-yl)-propoxy]-phenyl}-2-[4-(quinoline-2-carbonyl)-piperazin-1-yl]-ethanone] showed a melting point of 115.4 to 120 °C. At human H3 receptor, the Ki is 0.1 to 100 nM. Besides, in series [1], the Ki was 0.1 to 100 nM.

Turning to `C[C@@H]1CCCN1CCCOc1cccc(C(=O)CN2CCC(F)(F)CC2)c1` [Example 154, 2-(4,4-Difluoro-piperidin-1-yl)-1-{3-[3-((R)-2-methyl-pyrrolidin-1-yl)-propoxy]-phenyl}-ethanone], the melting point lay in the range of 110 to 120 °C. The Ki at human H3 receptor was in the range of 0.1 to 100 nM. The Ki in series [1] fell in the range of 101 to 500 nM.

The molecule `C[C@@H]1CCCN1CCCOc1ccc(C(=O)CN2CCN(C(=O)Oc3ccc(F)cc3)CC2)cc1` [Example 149, 4-(2-{4-[3-((R)-2-Methyl-pyrrolidin-1-yl)-propoxy]-phenyl}-2-oxo-ethyl)-piperazine-1-carboxylic acid 4-fluoro-phenyl ester] returned a melting point of 234 to 236 °C. The inhibition constant Ki on human H3 receptor lay in the range of 0.1 to 100 nM. The Ki in series [1] was 0.1 to 100 nM.

In the case of `C[C@@H]1CCCN1CCCOc1ccc(C(=O)CN2CCN(c3ncccn3)CC2)cc1Cl` [Example 125, 1-{3-Chloro-4-[3-((R)-2-methyl-pyrrolidin-1-yl)-propoxy]-phenyl}-2-(4-pyrimidin-2-yl-piperazin-1-yl)-ethanone], the melting point fell in the range of 112 to 114 °C. On human H3 receptor, this molecule showed a Ki of 0.1 to 100 nM. For the same molecule, the Ki in series [1] fell in the range of 101 to 500 nM.

`C[C@@H]1CCCN1CCCOc1ccc(C(=O)CN2CCN(S(C)(=O)=O)CC2)cc1` [Example 66, 2-(4-Methanesulfonyl-piperazin-1-yl)-1-{4-[3-((R)-2-methyl-pyrrolidin-1-yl)-propoxy]-phenyl}-ethanone] had a melting point of 120 to 126 °C. This molecule yielded an inhibition constant (Ki) at human H3 receptor of 0.1 to 100 nM. For the same molecule, the inhibitory constant (Ki) in series [1] lay within 0.1 to 100 nM.

The molecule `C[C@@H]1CCCN1CCCOc1ccc(C(=O)CN2CCC(F)(F)CC2)cc1` [Example 44, 2-(4,4-Difluoro-piperidin-1-yl)-1-{4-[3-((R)-2-methyl-pyrrolidin-1-yl)-propoxy]-phenyl}-ethanone] showed a melting point of 127 to 140 °C. Further, the inhibition constant (Ki) on human H3 receptor lay within 0.1 to 100 nM. The Ki in series [1] fell in the range of 0.1 to 100 nM.

(Values after patent publication US20140296212A1, “SUBSTITUTED PHENOXYPROPYLCYCLOAMINE DERIVATIVES AS HISTAMINE-3 (H3) RECEPTOR LIGANDS” (CEPHALON, INC., priority 2009, published 2014).)
